The record followed here is article PMC7307906, “Macrocyclic Modalities Combining Peptide Epitopes and Natural Product Fragments” (Journal of the American Chemical Society, 2020).

The target of one experiment is T1, Recombinant human SPSB2 (Homo sapiens, UniProt Q99619).
T1 construct: purchased Abcam ab134592
T1 sequence (Q99619 1-263): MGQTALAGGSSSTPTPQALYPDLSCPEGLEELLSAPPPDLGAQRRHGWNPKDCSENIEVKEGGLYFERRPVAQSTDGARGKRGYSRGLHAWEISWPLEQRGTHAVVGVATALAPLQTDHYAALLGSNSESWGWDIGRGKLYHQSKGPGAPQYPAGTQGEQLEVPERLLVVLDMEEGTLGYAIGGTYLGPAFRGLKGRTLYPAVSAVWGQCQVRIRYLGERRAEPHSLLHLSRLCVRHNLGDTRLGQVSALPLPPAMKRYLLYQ
The experiment is described as follows: Surface plasmon resonance (SPR) binding to immobilized hSPSB2. The following applies: for fold improved binding affinity compared to disulfide-bridged peptide 24: hSPSB2, versus 24; for fold loss of binding for the minor diastereomer: SPR KD, hSPSB2, minor versus major diastereomer; for Kd: hSPSB2, mean ± SEM of three independent experiments. On the procedure:
Example sensorgrams for selected PepNats D1−D4, D7, D8, D10, D12 and D18 interacting with immobilized hSPSB2 using SPR (red). Each PepNat was injected at 0.020 µM, 0.078 µM, 0.313 µM, 1.25 µM and 5 µM concentration in quick succession followed by a longer dissociation time. A binding kinetic model was fitted to each experimental trace (black). All experiments were conducted in triplicates. […]
to the elution profile of the crude product . The relevant fractions containing the desired product were collected, analyzed by RP-HPLC-MS and accordingly pooled and lyophilized.
HRMS were obtained on a Thermo Scientific LTQ Fleet Orbitrap mass spectrometer coupled to an Accela HPLC-System (HPLC column: Hypersyl GOLD, 50 mm x 1 mm, particle size 1.9 μm) equipped with an electron spray ionization source (ESI). The mass detection was recorded in the range of […]
2) B) Biochemical Assays Materials and Methods
Surface Plasmon Resonance (SPR)
All SPR experiments were conducted on a Biacore T200, S200 or 8K instrument (GE Healthcare) at 20 °C using HBS-P+ as running buffer (GE Healthcare). A CM5 sensor chip (GE Healthcare) was conditioned three times at 60 s using 50 mM NaOH, 1 M NaCl prior to standard NHS/EDC activation (e.g. amine coupling in the Biacore instruction manual) of the sensor surface for 420 s.
Recombinant human SPSB2 (product ID: ab134592, Abcam, Cambridge, UK) was diluted to 200 nM using 10 mM Sodium acetate pH 5. 5 and injected over the activated surface for 300 s. This surface and a surface subjected to only NHS/EDC activation were deactivated using 100 mM Tris -HCl, pH 8.0. The empty surface was used as a reference surface.
All PepNat and peptide reference interac tion experiments were conducted by diluting 10 mM DMSO stocks of PepNats and peptide references using digital dispensing (Tecan) to 10 µM, 2.5 µM, 625 nM, 156 nM and 40 nM or 1 µM, 250 nM, 63 nM, 16 nM and 4 nM. All concentrations were serially injected ov er both the SPSB2 containing - and empty surfaces using single -cycle kinetics (GE Healthcare). The resulting sensorgrams were reference - and blank subtracted prior to fitting of the data using a binding kinetic model (Biacore evaluation software).
DNA constructs, cell culturing, transfections and generation of stable cell lines DNA constructs and cell lines were employed as previously described by Durek et al.7 “cDNAs encoding human MC1 (Genbank accession number NM_002386), MC3 (NM_019888), and MC4 (NM_005912) and MC5 (NM_005913) were cloned into the pcDNA4/TO vector (ThermoFisher). In the constructs, a consensus Kozak sequence (GCCACC) was incorporated immediately before the start ATG. DNA was amplified, isolated and sequenced using standard techniques.
T-Rex™-293 cells (ThermoFisher) were cultured in DMEM medium, supplemented with 10% foetal bovine serum and 5 µg/ml blasticidin at 37°C in a humidified atmosphere with 10% CO2.
Lipofectamine 2000 (ThermoFisher) was used for transfections according to the manufacturer’s recommendations. Resistant polyclonal populations were generated by selection with Zeocin (0.3 mg/ml, ThermoFisher) for about two weeks after transfection. Individual clones were iso lated using flow cytometry, subsequently expanded, tested for responsiveness to [Nle 4, DPhe7]-α-Melanocyte Stimulating Hormone (NDP-α-MSH) and cryopreserved.” To induce receptor

The next experiment addresses T2, SPSB2 (Homo sapiens, UniProt Q99619).
T2 chain: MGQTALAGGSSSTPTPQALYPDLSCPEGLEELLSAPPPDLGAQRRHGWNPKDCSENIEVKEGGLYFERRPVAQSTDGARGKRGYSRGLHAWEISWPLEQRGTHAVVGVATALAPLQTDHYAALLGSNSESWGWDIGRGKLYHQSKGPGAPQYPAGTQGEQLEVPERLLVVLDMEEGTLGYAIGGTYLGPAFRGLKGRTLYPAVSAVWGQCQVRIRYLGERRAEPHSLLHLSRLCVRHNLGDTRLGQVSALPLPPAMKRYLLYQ
The experiment is described as follows: SPR. (In SPR one partner is held on a chip, and binding of the other changes the refractive index at the surface.)

Bridges are numbered along the chain shown (N, C = ends). Where no end group is shown, it is not given here. [ ]: non-standard residue; d: D form. pyrrolidinyl‑spirobarbiturate (VII) = not defined here; N‑phenyl fused di‑pyrrolidine (II) = not defined here; N‑methyl fused di‑pyrrolidine (I) = not defined here; ortho ether aromatic unit (VIII) = not defined here; NP‑inspired fragment III = not defined here; pyrrolidine (IV) = not defined here; NMeF = CN[C@@H](Cc1ccccc1)C(=O)O; NMeL = CN[C@@H](CC(C)C)C(=O)O Where only a bound is given, the exact number is not on record here.

Take `CC[C@H](C)[C@@H]1NC(=O)[C@H](CC(=O)O)NC(=O)[C@H](Cc2ccccc2)N(C)C(=O)[C@@H]2N[C@H](c3ccc(cc3)C(=O)NCCCC[C@@H](C(=O)NCC(N)=O)NC(=O)[C@H](CC(N)=O)NC(=O)[C@H](CC(N)=O)NC(=O)[C@H](CC(N)=O)NC1=O)C1(C(=O)N(C)C(=O)N(C)C1=O)[C@H]2c1ccccc1` [D7-major, [VII-FDINNNK ]G]: the “fold improved binding affinity compared to disulfide-bridged peptide 24” value on Recombinant human SPSB2 (ratio of SPR KD) is recorded as 4 fold. Further, the “fold higher affinity compared to ortho ether aromatic unit analogue 26” value at Recombinant human SPSB2 (ratio of SPR KD, hSPSB2, versus 26) is listed as 46 fold.

With `CC[C@H](C)[C@@H]1NC(=O)[C@H](CC(=O)O)NC(=O)[C@H](C(C)C)N(C)C(=O)[C@H]2N[C@@H](c3ccc(cc3)C(=O)NCCCC[C@@H](C(=O)NCC(N)=O)NC(=O)[C@H](CC(N)=O)NC(=O)[C@H](CC(N)=O)NC(=O)[C@H](CC(N)=O)NC1=O)[C@H]1C(=O)N(c3ccccc3)C(=O)[C@H]12` [D18-minor, [II-VDINNNK ]G], the “fold loss of binding for the minor diastereomer” value at Recombinant human SPSB2 came out at 63 fold.

Consider `CC[C@H](C)[C@@H]1NC(=O)[C@H](CC(=O)O)NC(=O)[C@H](C(C)C)N(C)C(=O)[C@H]2N[C@@H](c3ccc(cc3)C(=O)NCCCC[C@@H](C(=O)NCC(N)=O)NC(=O)[C@H](CC(N)=O)NC(=O)[C@H](CC(N)=O)NC(=O)[C@H](CC(N)=O)NC1=O)[C@H]1C(=O)N(C)C(=O)[C@H]12` [D13-minor, [I-VDINNNK ]G], for which the “fold loss of binding for the minor diastereomer” value at Recombinant human SPSB2 is listed as 5 fold.

Consider `CC[C@H](C)[C@@H]1NC(=O)[C@H](CC(=O)O)NC(=O)[C@H](Cc2ccccc2)N(C)C(=O)[C@@H]2N[C@H](c3ccc(cc3)C(=O)NCCC[C@@H](C(=O)NCC(N)=O)NC(=O)[C@H](CC(N)=O)NC(=O)[C@H](CC(N)=O)NC(=O)[C@H](CC(N)=O)NC1=O)[C@@H]1C(=O)N(C)C(=O)[C@@H]12` [D8-major, [I-FDINNNOrn ]G], for which the Kd on Recombinant human SPSB2 (SPR) stood at 282 ± 93 nM.

For `CC[C@H](C)[C@@H]1NC(=O)[C@H](CC(=O)O)NC(=O)[C@H](Cc2ccccc2)N(C)C(=O)[C@@H]2N[C@H](c3ccc(cc3)C(=O)NCC[C@@H](C(=O)NCC(N)=O)NC(=O)[C@H](CC(N)=O)NC(=O)[C@H](CC(N)=O)NC(=O)[C@H](CC(N)=O)NC1=O)[C@@H]1C(=O)N(C)C(=O)[C@@H]12` [D9-major, [I-FDINNNDab ]G], the Kd on Recombinant human SPSB2 (SPR) was 66 ± 8 nM.

Regarding `CC[C@H](C)[C@@H]1NC(=O)[C@H](CC(=O)O)NC(=O)[C@H](Cc2ccccc2)N(C)C(=O)[C@H]2N[C@@H](c3ccc(cc3)C(=O)NCCCC[C@@H](C(=O)NCC(N)=O)NC(=O)[C@H](CC(N)=O)NC(=O)[C@H](CC(N)=O)NC(=O)[C@H](CC(N)=O)NC1=O)[C@@H](C(=O)OC)[C@H]2C(=O)OC` [D4-minor, [IV-FDINNNK ]G], the “binding to SPSB2 (in words)” value on Recombinant human SPSB2 (SPR, hSPSB2) is listed as “did not bind”. Further, the dissociation constant (Kd) at Recombinant human SPSB2 (SPR) is more than 10000 nM.

On to `CC[C@H](C)[C@@H]1NC(=O)[C@H](CC(=O)O)NC(=O)[C@H](C(C)C)N(C)C(=O)[C@@H]2N[C@H](c3ccc(cc3)C(=O)NCCCC[C@@H](C(=O)NCC(N)=O)NC(=O)[C@H](CC(N)=O)NC(=O)[C@H](CC(N)=O)NC(=O)[C@H](CC(N)=O)NC1=O)[C@@H]1C(=O)N(c3ccccc3)C(=O)[C@@H]12` [D18-major, [II-VDINNNK ]G], for which the “fold improved binding affinity compared to disulfide-bridged peptide 24” value at Recombinant human SPSB2 (ratio of SPR KD) is listed as 7 fold. The “fold improved binding affinity compared to cyclic peptide 25” value on Recombinant human SPSB2 (ratio of SPR KD, hSPSB2, versus 25) is 36 fold. Besides, at Recombinant human SPSB2 (ratio of SPR KD, hSPSB2, versus 27), the “fold better affinity than 27” value amounted to 40 fold.

For the molecule `CC[C@H](C)[C@@H]1NC(=O)[C@H](CC(=O)O)NC(=O)[C@H](Cc2ccccc2)N(C)C(=O)[C@@H]2N[C@H](c3ccc(cc3)C(=O)NC[C@@H](C(=O)NCC(N)=O)NC(=O)[C@H](CC(N)=O)NC(=O)[C@H](CC(N)=O)NC(=O)[C@H](CC(N)=O)NC1=O)[C@@H]1C(=O)N(c3ccccc3)C(=O)[C@@H]12` [D17-major, [II-FDINNNDap ]G], the Kd at Recombinant human SPSB2 (SPR) was determined as 1080 ± 76 nM.

For `CC[C@H](C)[C@@H]1NC(=O)[C@H](CC(=O)O)NC(=O)[C@@H](Cc2ccccc2)N(C)C(=O)[C@@H]2N[C@H](c3ccc(cc3)C(=O)NCCCC[C@@H](C(=O)NCC(N)=O)NC(=O)[C@H](CC(N)=O)NC(=O)[C@H](CC(N)=O)NC(=O)[C@H](CC(N)=O)NC1=O)[C@@H]1C(=O)N(C)C(=O)[C@@H]12` [D15-major, [I-fDINNNK ]G], the dissociation constant Kd on Recombinant human SPSB2 (SPR) was more than 10000 nM.

In the case of `CC[C@H](C)[C@@H]1NC(=O)[C@H](CC(=O)O)NC(=O)[C@H](Cc2ccccc2)N(C)C(=O)[C@@H]2N[C@H](c3ccc(cc3)C(=O)NC[C@@H](C(=O)NCC(N)=O)NC(=O)[C@H](CC(N)=O)NC(=O)[C@H](CC(N)=O)NC(=O)[C@H](CC(N)=O)NC1=O)[C@@H]1C(=O)N(C)C(=O)[C@@H]12` [D10-major, [I-FDINNNDap ]G], the Kd on Recombinant human SPSB2 (SPR) was 72 ± 16 nM.

B1: PepNat D4-major (peptide)
chain: [NMeF]DINNNKG-NH2
modifications: bridge (positions not given here) via pyrrolidine (IV); reading uncertain; also: macrocycle via pyrrolidine (IV)
B1: binding with SPSB2 was put at a Kd of 18 nM.

B2: PepNat D3-major (peptide)
chain: [NMeF]DINNNKG-NH2
modifications: bridge (positions not given here) via NP‑inspired fragment III; reading uncertain; also: macrocycle via NP-inspired fragment III
B2 had a Kd with SPSB2 of 309 nM.

B3: PepNat D2-major (peptide)
chain: [NMeF]DINNNKG-NH2
modifications: bridge (positions not given here) via N‑phenyl fused di‑pyrrolidine (II); reading uncertain; also: macrocycle via N-phenyl fused di-pyrrolidine (II)
In the experiment with SPSB2, B3 had a Kd of 231 nM.

B4: iNOS peptide 23 (peptide)
chain: Ac-DINNN
B4 came in with a dissociation constant (Kd) with SPSB2 of 237 nM.

B5: PepNat D12-major (peptide)
chain: [NMeL]DINNNKG-NH2
modifications: bridge (positions not given here) via N‑methyl fused di‑pyrrolidine (I); reading uncertain; also: macrocycle via N-methyl fused di-pyrrolidine (I)
In the experiment with SPSB2, B5 yielded a Kd of 10 nM.

B6: PepNat D18-minor (peptide)
chain: VDINNNKG
modifications: macrocycle via N-phenyl fused di-pyrrolidine (II) minor diastereomer, N-Me-Val
In the case of B6, the Kd with SPSB2 amounted to 139 nM.

B7: PepNat D7-major (peptide)
chain: [NMeF]DINNNKG-NH2
modifications: bridge (positions not given here) via pyrrolidinyl‑spirobarbiturate (VII); reading uncertain; also: macrocycle via pyrrolidinyl-spirobarbiturate (VII)
Consider B7, for which, in the experiment with SPSB2, the Kd amounted to 3.8 nM.

B8: cyclic peptidomimetic 26 (peptide)
chain: DINNN
modifications: bridge (positions not given here) via ortho ether aromatic unit (VIII); reading uncertain; also: cyclized via ortho ether aromatic unit (VIII), attachment points not given here
The molecule B8 yielded a Kd with SPSB2 of 175 nM.

B9: cyclic peptide 24 (peptide)
chain: CVDINNNC
modifications: disulfide 1-8 (inferred)
Molecule B9 displayed a dissociation constant Kd in the experiment with SPSB2 of 16 nM.

The term Kd denotes the constant that tells how readily two partners part at equilibrium.
